Reference: patent US8273769B2, “Phenoxy acetic acid derivatives” (Merck Serono SA, priority 2009, dated 2012)

Experiments:
[1] = In vivo pharmacokinetic evaluation in mouse; set-up: species or system C57BL/6 female mice; conditions: mice; for clearance / bioavailability / AUC: female, C57BL/6, mouse, plasma; for clearance: iv, i.v. 1 mg/Kg; for bioavailability: po, 5 mg/kg; for AUC po (5 mg/Kg) / AUC: oral gavage 5 mg/Kg
Method: In order to study the pharmacokinetic (PK) profile of test compounds in vivo, Sprague Dawley male rats or C57BL/6 female mice were dosed intravenously or after oral gavage. For both species, test compounds were dosed in solution at 1 mg/kg for i.v. route (10% ethanol, 10% N,N-dimethylacetamide, 30% propylene glycol, 50% water, v/v) and in suspension at 5 mg/kg (0.5% carboxymethylcellulose suspension, containing 0.25% Tween 20 in water) for oral gavage. PK profile in rat was obtained from 3 animals per dosing route and mouse PK profile was determined from 3 animals for each time points. The volume of administration was 2 mL/kg for i.v. dosing in both species and either 5 mL/kg (rat) or 10 mL/kg (mouse) for oral gavage. Blood samples (100 μL/time point) were collected at 0.083 (5 min), 0.25, 0.5, 1, 4, 7 and 24 hours post-dose for i.v. dosing, and at 0.5, 1, 4, 7 and 24 h for oral dosing, into heparin-Li+ containing tubes. For rats, all blood samples were collected trough a catheter in the carotid artery (placed in the artery the day before the experiment), under light isoflurane anesthesia, and stored on ice until centrifugation and plasma isolation. For mouse, blood samples were collected from intracardiac puncture at sacrifice at each time point and processed as described above for the rat. Plasma samples were stored frozen until analysis (−20° C. to −70° C.). For bioanalysis, samples were processed by protein precipitation (acetonitrile, formic acid 0.1%, addition of 3 volumes) after addition of one internal standard and analysed using a sensitive and selective LC/MS/MS method. An aliquot of the resulting supernatant was subject to LC/MS/MS analysis using a reverse phase column (Waters Xterra, C8, (3.5 μm particle size, 2.1×50 mm) and a short gradient (1 min) from (Solvent A) 85% water, 15% acetonitrile and 0.1% formic acid to (Solvent B) 90% acetonitrile, 10% water and 0.1% formic acid followed by isocratic conditions of Solvent B for 3.5 min at 0.4 mL/min. Column effluent was monitored using a Sciex API 4000 triple quadrupole mass spectrometer with a Turbo V electrospray ion source. Unknown concentrations of test compounds were determined using a calibration curve ranging from 1 to 3000 ng/mL.

[2] = test system: eosinophils in human whole blood; experiment: PGD2-induced eosinophil cell shape assay in human whole blood; type: cell-based; conditions: 10 nM PGD2 final, flow cytometry
Method: The Compounds of Formula (I) were diluted in dimethylsulphoxide so that the total volume of dimethylsulfoxide was kept constant at 2% dimethylsulphoxide (Me2SO). Serial dilutions of 200 μM to 0.09 μM were prepared. Samples of 90 μl of human blood from healthy volunteers (Centre de Transfusion Sanguine de Genève) were pre-incubated in polypropylene Falcon tubes (BD 352063) for 20 minutes in a water bath at 37° C. with 10 μl of diluted compounds. For CRTH2 activation, 100 μl PGD2 (Cayman 12010) at 20 nM was added (10 nM final) to each tube and cells were maintained at 37° C. For negative control cells were treated with PBS. After 10 minutes, cell activation was stopped with 120 μl Formaldehyde 10% (4% final, Fluka 41650) and cells were rested for 10 minutes at room temperature. Fixed cells were transferred into polypropylene tubes and then treated for 1 hour in a water bath at 37° C. with 2 ml of Triton-Surfact-Amps X-100 (Pierce 28314) at 0.166% (0.13% Triton final). After several washes with PBS (red cells lysed progressively during washes, two washes are necessary), cells were analyzed by flow cytometry on a FACSCalibur. In one embodiment, the compounds of Formula (I) of the present invention are capable of blocking the cell shape change of eosinophils induced by PGD2 in Whole Blood.

CRTH2 = target: T1, CRTH2 (Homo sapiens, UniProt Q9Y5Y4); experiment: Cellular Dielectric Spectroscopy (CHO-CRTH2 cells); type: cell-based; set-up: expressed in transfected cells; host or cells: CHO-CRTH2 cells; conditions: antagonist mode, fixed concentration of PGD2 (EC80)
T1 sequence (Q9Y5Y4 1-395): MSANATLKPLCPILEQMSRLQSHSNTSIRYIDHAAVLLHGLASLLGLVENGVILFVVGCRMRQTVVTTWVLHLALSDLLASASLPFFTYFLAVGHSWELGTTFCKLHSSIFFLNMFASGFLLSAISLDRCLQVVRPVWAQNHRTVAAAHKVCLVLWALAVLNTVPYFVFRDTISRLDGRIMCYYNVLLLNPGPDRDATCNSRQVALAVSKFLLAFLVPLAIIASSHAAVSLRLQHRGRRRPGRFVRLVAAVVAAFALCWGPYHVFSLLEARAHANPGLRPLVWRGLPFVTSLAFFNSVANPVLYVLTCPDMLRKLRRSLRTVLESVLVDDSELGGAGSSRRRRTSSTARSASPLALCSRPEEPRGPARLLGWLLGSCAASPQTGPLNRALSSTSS
In short: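 Label-free cellular dielectric spectroscopy measured impedance changes (dZ) in CHO-CRTH2 cells. The cells were grown in HAM's F12 with 10% foetal calf serum and 400 μg/ml Geneticin, plated at 100000 cells/well in 96W electrode microplates, and kept 24 hours at 37° C. in 5% CO2. They were then washed twice with 135 μl of HBSS/10 mM HEPES pH 7.4/1% DMSO buffer. Signal was the max-min amplitude, with basal and maximum activity defined without and with PGD2 (EC80).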

| Compound | clearance [1] | bioavailability [1] | AUC po (5 mg/Kg) [1] | IC50 [2] | IC50 (CRTH2) | Oral bioavailability [1] | AUC [1] |
| --- | --- | --- | --- | --- | --- | --- | --- |
| CC(C)S(=O)(=O)c1ccc(F)c(C#Cc2cc(Cl)ccc2OCC(=O)O)c1 [Example 102, (4-chloro-2-{[2-fluoro-5-(isopropylsulfonyl)phenyl]ethynyl}phenoxy)acetic acid] | 5.83 mL/min/kg | 130% | 18691 ng·h/mL | 91 nM | 16 nM | – | – |
| CCCS(=O)(=O)c1ccc(Cl)c(C#Cc2cc(Cl)ccc2OCC(=O)O)c1 [Example 101, (4-chloro-2-{[2-chloro-5-(propylsulfonyl)phenyl]ethynyl}phenoxy)acetic acid] | 16.7 mL/min/kg | 110% | 5795 ng·h/mL | 23 nM | 38 nM | – | – |
| CN(C)S(=O)(=O)c1ccc(F)c(C#Cc2cc(Cl)ccc2OCC(=O)O)c1 [Example 107, [4-chloro-2-({5-[(dimethylamino)sulfonyl]-2-fluorophenyl}ethynyl)phenoxy]acetic acid] | 10 mL/min/kg | – | 4880 ng·h/mL | 23 nM | 23 nM | 58% | – |
| CC(C)S(=O)(=O)c1ccc(Cl)c(C#Cc2cc(Cl)ccc2OCC(=O)O)c1 [Example 103, (4-chloro-2-{[2-chloro-5-(isopropylsulfonyl)phenyl]ethynyl}phenoxy)acetic acid] | 11.7 mL/min/kg | – | 4889 ng·h/mL | 67 nM | 44 nM | 64% | – |
| CN(C)S(=O)(=O)c1cncc(C#Cc2cc(Cl)ccc2OCC(=O)O)c1 [Example 35, [4-chloro-2-({5-[(dimethylamino)sulfonyl]pyridin-3-yl}ethynyl)phenoxy]acetic acid] | 13.3 mL/min/kg | – | – | 289 nM | 23 nM | 95% | 6210 ng·h/mL |

Next, values leading:

| clearance [1] | bioavailability [1] | AUC po (5 mg/Kg) [1] | IC50 [2] | IC50 (CRTH2) | Oral bioavailability [1] | AUC [1] | Compound |
| --- | --- | --- | --- | --- | --- | --- | --- |
| 5 mL/min/kg | – | 5768 ng·h/mL | 150 nM | 22 nM | 37% | – | CCCS(=O)(=O)c1cccc(C#Cc2cc(Cl)ccc2OCC(=O)O)c1 [Example 17, (4-chloro-2-{[3-(propylsulfonyl)phenyl]ethynyl}phenoxy)acetic acid] |
| 16.7 mL/min/kg | 80% | 3685 ng·h/mL | 81 nM | 32 nM | – | – | CCCS(=O)(=O)c1ccc(C)c(C#Cc2cc(Cl)ccc2OCC(=O)O)c1 [Example 38, (4-chloro-2-{[2-methyl-5-(propylsulfonyl)phenyl]ethynyl}phenoxy)acetic acid] |
| 1.67 mL/min/kg | – | 30942 ng·h/mL | – | – | 57% | – | O=C(O)COc1ccc(Cl)cc1C#Cc1ccc2c(c1)S(=O)(=O)c1ccccc1-2 [Example 154, {4-chloro-2-[(5,5-dioxidodibenzo[b,d]thien-3-yl)ethynyl]phenoxy}acetic acid] |
| 6.67 mL/min/kg | – | – | 23 nM | 29 nM | 63% | 6750 ng·h/mL | CCCS(=O)(=O)c1ccc(F)c(C#Cc2cc(Cl)ccc2OCC(=O)O)c1 [Example 89, (4-chloro-2-{[2-fluoro-5-(propylsulfonyl)phenyl]ethynyl}phenoxy)acetic acid] |
